According to PubChem BioAssay AID258 (DTP/NCI, 2004):
Where “and” joins values, the source holds several entries; their conditions need not be identical. Equal entries are not always repeated. Toxic doses and inconclusive results are not listed.

Tested on: CD2F1 mice, L1210 leukemia sc, survival T/C
Assay: NCI In Vivo Anticancer Drug Screen. Data for tumor model L1210 Leukemia (subcutaneous) in CD2F1 (CDF1) mice
Settings: endpoint: median survival time, higher = longer survival
Summary of the method: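 Mice with transplanted tumor dosed; survival/tumor size read; T/C vs vehicle controls.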

For `O=c1n[n+]([O-])ccn1C1OC(CO)C(O)C1O` (stereo unspecified), the T/C (dose: 172.8 mg/kg/injection, schedule: Q01DX009 (ip), vehicle: saline) was 109 % of control, the T/C (dose: 288.0 mg/kg/injection, schedule: Q01DX009 (ip), vehicle: saline) was 123 % of control and the T/C (dose: 480.0 mg/kg/injection, schedule: Q01DX009 (ip), vehicle: saline) was 152 % of control.
In the case of `O=C(Nc1cccnc1)c1ccc([N+](=O)[O-])s1`, the T/C (dose: 25.0 mg/kg/injection, schedule: Q01DX005 (ip), vehicle: saline) is reported as 108 % of control, the T/C (dose: 50.0 mg/kg/injection, schedule: Q01DX005 (ip), vehicle: saline) is reported as 102 % of control and the T/C (dose: 100.0 mg/kg/injection, schedule: Q01DX005 (ip), vehicle: saline) is reported as 111 % of control.
For `CCN(CC)CCNc1ccc(CO)c2sc3ccccc3c(=O)c12`, the T/C (dose: 10.0 mg/kg/injection, schedule: Q01DX009 (ip), vehicle: water) was 103 % of control and 110 % of control and 116 % of control, the T/C (dose: 20.0 mg/kg/injection, schedule: Q01DX009 (ip), vehicle: water) was 113 % of control and 115 % of control and 121 % of control and the T/C (dose: 40.0 mg/kg/injection, schedule: Q01DX009 (ip), vehicle: water) was 150 % of control. The T/C (dose: 80.0 mg/kg/injection, schedule: Q01DX009 (ip), vehicle: water) was 100 % of control and the T/C (dose: 160.0 mg/kg/injection, schedule: Q01DX009 (ip), vehicle: water) was 103 % of control and 86 % of control and 94 % of control.
For `O=C(Nc1nncs1)c1cccs1`, the T/C (dose: 50.0 mg/kg/injection, schedule: Q01DX009 (ip), vehicle: saline with Tween-80) was 99 % of control, the T/C (dose: 100.0 mg/kg/injection, schedule: Q01DX009 (ip), vehicle: saline with Tween-80) was 95 % of control and the T/C (dose: 200.0 mg/kg/injection, schedule: Q01DX009 (ip), vehicle: saline with Tween-80) was 100 % of control. The T/C (dose: 400.0 mg/kg/injection, schedule: Q01DX009 (ip), vehicle: saline with Tween-80) was 100 % of control and the T/C (dose: 800.0 mg/kg/injection, schedule: Q01DX009 (ip), vehicle: saline with Tween-80) was 121 % of control.
`O=c1[nH]c(=O)n(C2CC(O)C(CO)O2)cc1C(F)(F)F` (stereo unspecified) was tested, and the T/C (dose: 2.5 mg/kg/injection, schedule: Q01DX009 (ip), vehicle: saline with Tween-80) was 106 % of control, the T/C (dose: 5.0 mg/kg/injection, schedule: Q01DX009 (ip), vehicle: saline with Tween-80) was 114 % of control and the T/C (dose: 10.0 mg/kg/injection, schedule: Q01DX009 (ip), vehicle: saline with Tween-80) was 117 % of control and 121 % of control. For the same molecule, the T/C (dose: 10.0 mg/kg/injection, schedule: Q01DX009 (sc), vehicle: saline) was 111 % of control and 122 % of control, the T/C (dose: 13.3 mg/kg/injection, schedule: Q01DX009 (sc), vehicle: saline with Tween-80) was 122 % of control and the T/C (dose: 20.0 mg/kg/injection, schedule: Q01DX009 (sc), vehicle: saline) was 111 % of control. The T/C (dose: 40.0 mg/kg/injection, schedule: Q01DX009 (ip), vehicle: saline with Tween-80) was 153 % of control, the T/C (dose: 40.0 mg/kg/injection, schedule: Q01DX009 (sc), vehicle: saline) was 118 % of control and 123 % of control and the T/C (dose: 60.0 mg/kg/injection, schedule: Q01DX009 (ip), vehicle: saline with Tween-80) was 156 % of control. The T/C (dose: 60.0 mg/kg/injection, schedule: Q01DX009 (sc), vehicle: saline with Tween-80) was 152 % of control, the T/C (dose: 80.0 mg/kg/injection, schedule: Q01DX009 (ip), vehicle: saline with Tween-80) was 150 % of control and the T/C (dose: 80.0 mg/kg/injection, schedule: Q01DX009 (sc), vehicle: saline with Tween-80) was 154 % of control. The T/C (dose: 90.0 mg/kg/injection, schedule: Q01DX009 (sc), vehicle: saline with Tween-80) was 167 % of control, the T/C (dose: 105.0 mg/kg/injection, schedule: Q01DX009 (sc), vehicle: saline with Tween-80) was 150 % of control and the T/C (dose: 120.0 mg/kg/injection, schedule: Q01DX009 (sc), vehicle: saline with Tween-80) was 158 % of control and 162 % of control. For the same molecule, the T/C (dose: 135.0 mg/kg/injection, schedule: Q01DX009 (sc), vehicle: saline with Tween-80) was 162 % of control, the T/C (dose: 160.0 mg/kg/injection, schedule: Q01DX009 (ip), vehicle: saline with Tween-80) was 121 % of control and the T/C (dose: 160.0 mg/kg/injection, schedule: Q01DX009 (sc), vehicle: saline) was 120 % of control. The T/C (dose: 180.0 mg/kg/injection, schedule: Q01DX009 (sc), vehicle: saline with Tween-80) was 120 % of control, the T/C (dose: 180.0 mg/kg/injection, schedule: Q01DX009 (sc), vehicle: saline) was 161 % of control and the T/C (dose: 211.2 mg/kg/injection, schedule: Q01DX009 (sc), vehicle: saline with Tween-80) was 151 % of control. For the same molecule, the T/C (dose: 240.0 mg/kg/injection, schedule: Q01DX009 (sc), vehicle: saline) was 158 % of control, the T/C (dose: 320.0 mg/kg/injection, schedule: Q01DX009 (ip), vehicle: saline with Tween-80) was 108 % of control and the T/C (dose: 320.0 mg/kg/injection, schedule: Q01DX009 (sc), vehicle: saline with Tween-80) was 156 % of control. For the same molecule, the T/C (dose: 320.0 mg/kg/injection, schedule: Q01DX009 (sc), vehicle: saline) was 119 % of control and the T/C (dose: 960.0 mg/kg/injection, schedule: Q01DX009 (sc), vehicle: saline with Tween-80) was 122 % of control.
`Cc1ccc(NCCN(C)C)c2c(=O)c3cc(O)ccc3sc12` was tested, and the T/C (dose: 12.5 mg/kg/injection, schedule: Q01DX009 (ip), vehicle: Klucel (hydroxypropylcellulose) (HPC)) was 110 % of control and 112 % of control, the T/C (dose: 25.0 mg/kg/injection, schedule: Q01DX009 (ip), vehicle: Klucel (hydroxypropylcellulose) (HPC)) was 112 % of control and 117 % of control and the T/C (dose: 50.0 mg/kg/injection, schedule: Q01DX009 (ip), vehicle: Klucel (hydroxypropylcellulose) (HPC)) was 165 % of control.
In the case of `CN1CCN(c2ccc3nc(-c4ccc5nc(-c6ccc(O)cc6)[nH]c5c4)[nH]c3c2)CC1`, the T/C (dose: 4.7 mg/kg/injection, schedule: Q03HX024 (ip), vehicle: saline) is reported as 102 % of control, the T/C (dose: 9.4 mg/kg/injection, schedule: Q03HX024 (ip), vehicle: saline) is reported as 107 % of control and the T/C (dose: 14.0 mg/kg/injection, schedule: Q03HX008 (ip), vehicle: saline) is reported as 102 % of control. For the same molecule, the T/C (dose: 18.75 mg/kg/injection, schedule: Q03HX024 (ip), vehicle: saline) was 110 % of control, the T/C (dose: 28.0 mg/kg/injection, schedule: Q03HX008 (ip), vehicle: saline) was 113 % of control and the T/C (dose: 37.5 mg/kg/injection, schedule: Q03HX024 (ip), vehicle: saline) was 119 % of control. The T/C (dose: 37.5 mg/kg/injection, schedule: Q04DX003 (ip), vehicle: saline) was 101 % of control, the T/C (dose: 75.0 mg/kg/injection, schedule: Q04DX003 (ip), vehicle: saline) was 107 % of control and the T/C (dose: 112.0 mg/kg/injection, schedule: Q01DX001 (ip), vehicle: suspension in saline) was 104 % of control. The T/C (dose: 150.0 mg/kg/injection, schedule: Q04DX003 (ip), vehicle: saline) was 110 % of control.
For `CS(=O)(=O)OCCCCCCCCCOS(C)(=O)=O`, the T/C (dose: 47.0 mg/kg/injection, schedule: Q01DX Z (sc), vehicle: carboxymethylcellulose (CMC)) was 112 % of control.
For `Nc1nc2ncn(O)c2c(=O)[nH]1`, the T/C (dose: 4.5 mg/kg/injection, schedule: Q01DX009 (ip), vehicle: other) was 278 % of control, the T/C (dose: 7.5 mg/kg/injection, schedule: Q01DX009 (ip), vehicle: other) was 164 % of control and the T/C (dose: 12.5 mg/kg/injection, schedule: Q01DX009 (ip), vehicle: other) was 268 % of control. For the same molecule, the T/C (dose: 20.83 mg/kg/injection, schedule: Q01DX009 (ip), vehicle: other) was 113 % of control.
`[Cl][Pt+2][Cl].[NH-]CC1(C[NH-])CCC1` was tested, and the T/C (dose: 3.12 mg/kg/injection, schedule: Q01DX009 (ip), vehicle: Klucel (hydroxypropylcellulose) (HPC)) was 158 % of control.
`CSc1nc2[nH]cnc(=S)c2[nH]1` was tested, and the T/C (dose: 23.0 mg/kg/injection, schedule: Q01DX Z (sc), vehicle: methylcellulose (MC)) was 90 % of control, the T/C (dose: 39.0 mg/kg/injection, schedule: Q01DX Z (sc), vehicle: methylcellulose (MC)) was 100 % of control and the T/C (dose: 65.0 mg/kg/injection, schedule: Q01DX Z (sc), vehicle: methylcellulose (MC)) was 100 % of control. The T/C (dose: 108.0 mg/kg/injection, schedule: Q01DX Z (sc), vehicle: methylcellulose (MC)) was 100 % of control, the T/C (dose: 180.0 mg/kg/injection, schedule: Q01DX Z (sc), vehicle: methylcellulose (MC)) was 100 % of control and the T/C (dose: 300.0 mg/kg/injection, schedule: Q01DX Z (sc), vehicle: methylcellulose (MC)) was 100 % of control.
In the case of `Nc1nc(N)c2cc(CCc3ccc(C(=O)NC(CCC(=O)O)C(=O)O)cc3)ccc2n1` (stereo unspecified), the T/C (dose: 0.04 mg/kg/injection, schedule: Q01DX009 (ip), vehicle: Klucel (hydroxypropylcellulose) (HPC)) is reported as 98 % of control, the T/C (dose: 0.08 mg/kg/injection, schedule: Q01DX009 (ip), vehicle: Klucel (hydroxypropylcellulose) (HPC)) is reported as 102 % of control and the T/C (dose: 0.16 mg/kg/injection, schedule: Q01DX009 (ip), vehicle: Klucel (hydroxypropylcellulose) (HPC)) is reported as 105 % of control. For the same molecule, the T/C (dose: 0.63 mg/kg/injection, schedule: Q01DX009 (ip), vehicle: Klucel (hydroxypropylcellulose) (HPC)) was 89 % of control.
